Data as given in patent US20220370463A1, “STABILIZED C-FMS INTRACELLULAR FRAGMENTS (FICD) PROMOTE OSTEOCLAST DIFFERENTIATION AND ARTHRITIC BONE EROSION” (New York Society for the Relief of the Ruptured and …, priority 2019, published 2022).

Test system: K/BxN serum-induced arthritis
Test: K/BxN serum transfer induced arthritis model
Type: in vivo, C57BL/6J mice
Protocol: (a and b) BMDMs from WT and FICDtg^M mice was stimulated with RANKL (50 ng/ml) at the indicated time. (a) RT-qPCR of Nfatc1 mRNA normalized relative to Hprt mRNA. (b) Immunoblot with anti NFATc1, HA, or α-tubulin antibodies. (c and d) BMDMs from Csf1r^f/+ Mx1-Cre mice were transduced by lentiviruses encoding FMS^wt, or FMS^mut and then cultured with M-CSF and RANKL. (c) Immunoblot of whole lysate with anti-NFATc1 antibody. α-tubulin was used as a control. […] The intensity of NFATc1 in FMS^mut was set as 100%. (d) Expression mRNA level of NFATc1. (e) Immunoblot of whole cell lysates with phospho-eIF4E antibodies. HA-tagged FICD was detected by HA-antibody. α-tubulin was used as a control. […] (f and g) Human CD14+ cells were treated with CGP57380 at the indicated doses for one hour and cultured with RANKL for one day. […] (g) Nfatc1 mRNA expression was measured by qPCR relative to HPRT. A DMSO-treated RANKL condition was set as 100%. (h) Osteoclastogenesis assay. BMDMs from WT and FICDtg^M mice were treated with CPG57380 at the indicated doses and then cultured with RANKL for three days. […] Scale bar: 100 μm. (i) Cell viability assay. BMDMs WT and FICDtg^M mice was stimulated with CPG57380 at the indicated doses for one day. (j-n) K/BxN serum transfer induced arthritis model. 9-week old male C57BL/6J mice were received K/BxN serum on day 0 and day 2. Vehicle or CPG57380 (40 mg/kg) was administrated intraperitoneally (i.p) at day 2 until day 13 (n=5-6). (j) Schematic diagram showing experimental design. (k) Ankle thickness. (1) Arthritis score. (m) Representative images of TRAP stained histological sections from calcaneocuboid and tarsometatarsal joints. (n) Histomorphometry analysis of tarsal bones. N.OC/B.Pm; Osteoclast number/bone parameter. OC.S/BS; osteoclast surface/bone surface. ES/BS; Eroded surface/bone surface (n=5-6). All data are shown as mean±SEM. *, p<0.05 by One-way ANOVA with a post hoc Tukey test (a, f-i,k,l) or two-tailed, unpaired t-test (d,e,n). Data represent at least three experiments.
FIGS. 11A-11E show calpain regulates FICD generation. (A-E) K/BxN serum transfer induced arthritis model. 8-week old male C57BL/6J mice were received K/BxN serum on day 0 and day 2. Vehicle or MDL28170 (10 mg/kg) was administrated intraperitoneally (i.p) at day 2 until day 11 (n=10). (A) K/BxN Experimental design. (B) Arthritis score. (C) Ankle thickness. (D) Representative images of TRAP stained histological sections from calcaneocuboid and tarsometatarsal joints. (E) Histomorphometry analysis of tarsal bones. N.OC/B.Pm; Osteoclast number/bone parameter. […]
Histomorphometry experiment was performed with tarsal bone of vehicle or MDL28170 treated mice. […] The quantification of osteoclast was performed in paraffin embedded tissues that were stained for TRAP and Methyl green (Vector Laboratories). […]

[1] = CGP57380 40 mg/kg i.p. day 2 until day 13
[2] = MDL28170 10 mg/kg i.p. day 2 until day 11

MDL28170
severity of arthritis: ankle joint thickness [1]: not affected | severity of arthritis: clinical score [1]: not affected | severity of arthritis: ankle joint thickness [2]: attenuated | severity of arthritis: clinical score [2]: attenuated
